Source: patent US10550105B2 (Ribon Therapeutics Inc., priority 2018, dated 2020)
pIC50: −log10 of the molar value.

Biological target: PARP7 (Homo sapiens (Human), UniProt Q7Z3E1)
Experiment: Enzymatic assay for inhibition of PARP7: TR-FRET displacement of biotinylated Probe A from the TIPARP active site
Format: binding
Details: Table A-1
Outline: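 Percent inhibition derives from the ratio of 665 to 615 nm emission, which reports how much Probe A remains bound to TIPARP. Plates sat 30 min at 25° C before the time-resolved read (320 nm excitation).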

Sequence of PARP7 (Q7Z3E1 whole entry): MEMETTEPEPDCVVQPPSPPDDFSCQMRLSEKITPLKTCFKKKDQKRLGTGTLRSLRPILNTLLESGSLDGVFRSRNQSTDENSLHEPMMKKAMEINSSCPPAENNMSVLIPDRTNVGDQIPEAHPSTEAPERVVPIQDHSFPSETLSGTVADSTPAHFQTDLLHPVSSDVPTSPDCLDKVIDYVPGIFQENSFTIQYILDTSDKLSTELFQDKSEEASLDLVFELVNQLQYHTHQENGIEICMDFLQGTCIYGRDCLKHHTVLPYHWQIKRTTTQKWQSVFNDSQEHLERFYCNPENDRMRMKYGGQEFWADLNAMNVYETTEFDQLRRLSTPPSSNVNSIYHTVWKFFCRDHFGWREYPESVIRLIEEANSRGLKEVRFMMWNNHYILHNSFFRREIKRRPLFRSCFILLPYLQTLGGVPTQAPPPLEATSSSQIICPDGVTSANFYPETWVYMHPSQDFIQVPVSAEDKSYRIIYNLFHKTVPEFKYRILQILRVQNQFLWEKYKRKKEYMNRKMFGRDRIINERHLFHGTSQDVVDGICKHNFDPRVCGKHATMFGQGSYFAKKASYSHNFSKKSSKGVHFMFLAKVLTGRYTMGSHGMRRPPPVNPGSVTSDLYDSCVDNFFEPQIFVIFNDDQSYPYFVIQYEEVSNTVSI

`N#Cc1ccc(N2CCN(C(=O)C[C@H](N)COC[C@@H]3CCCN3c3cn[nH]c(=O)c3C(F)(F)F)CC2)nc1` [Example 145B, 6-[4-[(3S)-3-amino-4-[[(2S)-1-[6-oxo-5-(trifluoromethyl)-1,6-dihydropyridazin-4-yl]pyrrolidin-2-yl]methoxy]butanoyl]piperazin-1-yl]pyridine-3-carbonitrile; formic acid] and `N#Cc1ccc(N2CCN(C(=O)C3CC(OC[C@@H]4CCCN4c4cn[nH]c(=O)c4C(F)(F)F)C3)CC2)nc1` (single isomer, unassigned; isomer a) [Example 95 Isomer A] cannot be ordered by pIC50: > 7.00 for the first, > 7.00 for the second.

Compared with `N#Cc1ccc(N2CCN(C(=O)C[C@@H]3CC[C@H](COc4cn[nH]c(=O)c4Cl)O3)CC2)nc1` [Example 582 Isomer D, 6-(4-[2-[(2S,5R)-5-[[(5-Chloro-6-oxo-1,6-dihydropyridazin-4-yl)oxy]methyl]oxolan-2-yl]acetyl]piperazin-1-yl)pyridine-3-carbonitrile], `N#Cc1ccc(N2CCN(C(=O)CCOCCOc3cn[nH]c(=O)c3Cl)CC2)nc1` [Example 521, 6-[4-(3-[2-[(5-Chloro-6-oxo-1,6-dihydropyridazin-4-yl)oxy]ethoxy]propanoyl)piperazin-1-yl]pyridine-3-carbonitrile] is higher in pIC50: ≤ 6.00 for the first, > 7.00 for the second.

First: O=C(CCOC[C@@H]1CCCN1c1cn[nH]c(=O)c1C(F)(F)F)N[C@H]1CC[C@@H](Nc2ccccn2)CC1 (single isomer, unassigned; isomer b) [Example 81 Isomer B]
Second: N#Cc1cnc(N2CCN(C(=O)c3cccc(OCC4CCCN4c4cn[nH]c(=O)c4C(F)(F)F)c3)CC2)nc1 (centres unmarked) [Example 437, 2-(4-(3-((1-(6-Oxo-5-(trifluoromethyl)-1,6-dihydropyridazin-4-yl)pyrrolidin-2-yl)methoxy)benzoyl)piperazin-1-yl)pyrimidine-5-carbonitrile]
The pIC50 of the first is lower: ≤ 6.00 for the first, > 7.00 for the second. The second is the more potent here.

`CC(C)c1c(N2Cc3ccc(O[C@H]4CCCNC4)cc3C2)cn[nH]c1=O` [Example 293, (S)-4-Isopropyl-5-(5-(piperidin-3-yloxy)isoindolin-2-yl)pyridazin-3(2H)-one] and `COCCOc1ccc2c(c1)CN(c1cn[nH]c(=O)c1Cl)C2` [Example 156, 4-Chloro-5-(5-(2-methoxyethoxy)isoindolin-2-yl)pyridazin-3(2H)-one] cannot be ordered by pIC50: ≤ 6.00 for the first, 6.00 to 7.00 for the second.

Compared with `C[C@@H](COCCS(=O)(=O)N1CCN(c2ncc(C(F)(F)F)cn2)CC1)Oc1cn[nH]c(=O)c1C(F)(F)F` [Example 728, (S)-4-(Trifluoromethyl)-5-((1-(2-((4-(5-(trifluoromethyl)pyrimidin-2-yl)piperazin-1-yl)sulfonyl)ethoxy)propan-2-yl)oxy)pyridazin-3(2H)-one], `C[C@H](COCCC(=O)N1CCN(c2ncc(C(F)(F)F)cn2)CC1)Oc1cn[nH]c(=O)c1C(F)(F)F` (single isomer, unassigned) [Example 544 Isomer B] is lower in pIC50: > 7.00 for the first, 6.00 to 7.00 for the second. The first is the more potent here.

`Cc1ccc(N2CCN(C(=O)c3cccc(OCC4c5ccccc5CN4c4cn[nH]c(=O)c4C(F)(F)F)c3)CC2)nc1` (centres unmarked) [Example 403, 5-(1-((3-(4-(5-Methylpyridin-2-yl)piperazine-1-carbonyl)phenoxy)methyl)isoindolin-2-yl)-4-(trifluoromethyl)pyridazin-3(2H)-one] and `O=C(c1cccc(OC[C@@H]2c3ccccc3CN2c2cn[nH]c(=O)c2C(F)(F)F)c1)N1CCN(c2ccc(C(F)(F)F)cn2)CC1` (single isomer, unassigned) [Example 30 Isomer B] cannot be ordered by pIC50: > 7.00 for the first, > 7.00 for the second.

`N#Cc1ccc(N2CCN(C(=O)CNCC[C@@H]3c4ccccc4CN3c3cn[nH]c(=O)c3C(F)(F)F)CC2)nc1` [Example 144A, 6-[4-[2-([2-[(1R)-2-[6-oxo-5-(trifluoromethyl)-1,6-dihydropyridazin-4-yl]-2,3-dihydro-1H-isoindol-1-yl]ethyl]amino)acetyl]piperazin-1-yl]pyridine-3-carbonitrile] and `CN(CCC(=O)N1CCN(c2ccc(C#N)cn2)CC1)C[C@@H]1c2ccccc2CN1c1cn[nH]c(=O)c1Cl` [Example 429, (S)-6-(4-(3-(((2-(5-Chloro-6-oxo-1,6-dihydropyridazin-4-yl)isoindolin-1-yl)methyl)(methyl)amino)propanoyl)piperazin-1-yl)nicotinonitrile] cannot be ordered by pIC50: > 7.00 for the first, > 7.00 for the second.

`O=C(CCOC[C@@H](CCO)Oc1cn[nH]c(=O)c1C(F)(F)F)N1CCN(c2ncc(Cl)cn2)CC1` [Example 704, (R)-5-((1-(3-(4-(5-Chloropyrimidin-2-yl)piperazin-1-yl)-3-oxopropoxy)-4-hydroxybutan-2-yl)oxy)-4-(trifluoromethyl)pyridazin-3(2H)-one] and `CC[C@@H](COCCC(=O)N1CCN(c2ncc(C#N)cn2)CC1)Oc1cn[nH]c(=O)c1C(F)(F)F` [Example 592, 2-(4-[3-[(2S)-2-[[6-oxo-5-(trifluoromethyl)-1,6-dihydropyridazin-4-yl]oxy]butoxy]propanoyl]piperazin-1-yl)pyrimidine-5-carbonitrile] cannot be ordered by pIC50: > 7.00 for the first, > 7.00 for the second.

`N#Cc1ccc(NCCC(=O)Nc2cccc(OCC3c4ccccc4CN3c3cn[nH]c(=O)c3C(F)(F)F)c2)nc1` (centres unmarked) [Example 394, 3-((5-Cyanopyridin-2-yl)amino)-N-(3-((2-(6-oxo-5-(trifluoromethyl)-1,6-dihydropyridazin-4-yl)isoindolin-1-yl)methoxy)phenyl)propanamide] and `N#Cc1cnc(N2CCN(C(=O)c3cccc(OC[C@@H]4c5ccccc5CN4c4cn[nH]c(=O)c4C(F)(F)F)c3)CC2)cn1` [Example 370, (S)-5-(4-(3-((2-(6-Oxo-5-(trifluoromethyl)-1,6-dihydropyridazin-4-yl)isoindohn-1-yl)methoxy)benzoyl)piperazin-1-yl)pyrazine-2-carbonitrile] cannot be ordered by pIC50: > 7.00 for the first, > 7.00 for the second.

`COc1cc(F)c2c(c1)CN(c1cn[nH]c(=O)c1C(F)(F)F)C2` [Example 273, 5-(4-Fluoro-6-methoxyisoindolin-2-yl)-4-(trifluoromethyl)pyridazin-3(2H)-one] and `CN1CCN(CCOc2cccc3c2CN(c2cn[nH]c(=O)c2C(F)(F)F)C3)CC1` [Example 226, 5-(4-(2-(4-Methylpiperazin-1-yl)ethoxy)isoindolin-2-yl)-4-(trifluoromethyl)pyridazin-3(2H)-one] cannot be ordered by pIC50: > 7.00 for the first, > 7.00 for the second.

First: CN(Cc1ccncc1)Cc1cccc2c1CN(c1cn[nH]c(=O)c1C(F)(F)F)C2 [Example 328, 5-(4-((Methyl(pyridin-4-ylmethyl)amino)methyl)isoindolin-2-yl)-4-(trifluoromethyl)pyridazin-3(2H)-one]
Second: C[C@H]1c2ccccc2CN1c1cn[nH]c(=O)c1C(F)(F)F [Example 250, (S)-5-(1-Methylisoindolin-2-yl)-4-(trifluoromethyl)pyridazin-3(2H)-one]
The pIC50 of the first is higher: > 7.00 for the first, 6.00 to 7.00 for the second.

First: O=C(c1cncc(OCC2c3ccccc3CN2c2cn[nH]c(=O)c2C(F)(F)F)c1)N1CCN(c2ccc(Cl)cn2)CC1 (centres unmarked) [Example 376, 5-(1-(((5-(4-(5-Chloropyridin-2-yl)piperazine-1-carbonyl)pyridin-3-yl)oxy)methyl)isoindolin-2-yl)-4-(trifluoromethyl)pyridazin-3(2H)-one]
Second: O=C(c1cccc(OC[C@H]2c3ccccc3CN2c2cn[nH]c(=O)c2C(F)(F)F)c1)N1CCN(c2ncc(C(F)(F)F)cn2)CC1 [Example 391, (R)-4-(Trifluoromethyl)-5-(1-((3-(4-(5-(trifluoromethyl)pyrimidin-2-yl)piperazine-1-carbonyl)phenoxy)methyl)isoindolin-2-yl)pyridazin-3(2H)-one]
The pIC50 of the first is higher: > 7.00 for the first, ≤ 6.00 for the second.

Compared with `C[C@H](COCCC(=O)N1CCN(c2ccc(C#N)cn2)CC1)Nc1cn[nH]c(=O)c1C(F)(F)F` [Example 513B, (R)-6-(4-(3-(2-(6-Oxo-5-(trifluoromethyl)-1,6-dihydropyridazin-4-ylamino)propoxy)propanoyl)piperazin-1-yl)nicotinonitrile], `CO[C@H](C)[C@@H](COCCC(=O)N1CCN(c2ncc(C(F)(F)F)cn2)CC1)Nc1cn[nH]c(=O)c1C(F)(F)F` [Example 699, 5-(((2R,3R)-3-Methoxy-1-(3-oxo-3-(4-(5-(trifluoromethyl)pyrimidin-2-yl)piperazin-1-yl)propoxy)butan-2-yl)amino)-4-(trifluoromethyl)pyridazin-3(2H)-one] is higher in pIC50: 6.00 to 7.00 for the first, > 7.00 for the second.

`COC[C@@H](COCCS(=O)(=O)N1CCN(c2ncc(C(F)(F)F)cn2)CC1)Nc1cn[nH]c(=O)c1C(F)(F)F` [Example 624, (S)-5-((1-Methoxy-3-(2-[(4-(5-(trifluoromethyl)pyrimidin-2-yl)piperazin-1-yl)sulfonyl)ethoxy)propan-2-yl)amino)-4-(trifluoromethyl)pyridazin-3(2H)-one] and `C[C@@H](COCCS(=O)(=O)N1CCN(c2ncc(C(C)(C)C)cn2)CC1)Nc1cn[nH]c(=O)c1C(F)(F)F` [Example 725, (S)-5-((1-(2-((4-(5-(Tert-butyl)pyrimidin-2-yl)piperazin-1-yl)sulfonyl)ethoxy)propan-2-yl)amino)-4-(trifluoromethyl)pyridazin-3(2H)-one] cannot be ordered by pIC50: > 7.00 for the first, > 7.00 for the second.

`C[C@@H](COCCC(=O)N1CCN(c2ncc(C(F)(F)F)cn2)CC1)Oc1cn[nH]c(=O)c1Br` [Example 608, 4-Bromo-5-[[(2S)-1-(3-oxo-3-[4-[5-(trifluoromethyl)pyrimidin-2-yl]piperazin-1-yl]propoxy)propan-2-yl]oxy]-2,3-dihydropyridazin-3-one] and `C[C@@H](COCCS(=O)(=O)N1CCN(c2ncc(C(F)(F)F)s2)CC1)Oc1cn[nH]c(=O)c1C(F)(F)F` [Example 625, (S)-4-(Trifluoromethyl)-5-((1-(2-[(4-(5-(trifluoromethyl)thiazol-2-yl)piperazin-1-yl)sulfonyl)ethoxy)propan-2-yl)oxy)pyridazin-3(2H)-one] cannot be ordered by pIC50: > 7.00 for the first, > 7.00 for the second.

First: O=C(C[C@@H]1CC[C@@H](CNc2cn[nH]c(=O)c2C(F)(F)F)O1)N1CCN(c2ncc(Cl)cn2)CC1 (single isomer, unassigned) [Example 567 Isomer C]
Second: CC(=O)N1CCN(CCOc2cccc3c2CN(c2cn[nH]c(=O)c2Cl)C3)CC1 [Example 230, 5-(4-(2-(4-Acetylpiperazin-1-yl)ethoxy)isoindolin-2-yl)-4-chloropyridazin-3(2H)-one]
The pIC50 of the first is higher: > 7.00 for the first, 6.00 to 7.00 for the second. The first is the more potent here.
